This data set deals with hTERT cells. The data set is described as follows: cytotoxicity of chlorhexidine on viability/adhesion of hTERT cells (Calcein AM / Ethidium homodimer). In kind it is cell-based, human. The following applies: 24 h. The method, then: A separate experiment was carried out to measure the cytotoxicity of different chlorhexidine concentrations on the viability/adhesion of hTERT cells. hTERT cells were cultured as described above onto Thermanox discs in four well plates, but the DMEM with 10% FCS was inoculated with 0.1%, 1% or 10% chlorhexidine. Two control discs were also included containing just DMEM with 10% FCS, one disc was in the same plate as the chlorhexidine samples and the other in a separate four well plate. Plates were incubated at 37° C. for 24 h, before the media was removed and 1 ml DMEM (no FCS) containing 1 μl/ml Calcein AM (reacts with live cells) and 1 μl/ml Ethidium homodimer (reacts with dead cells) was added. The plates were incubated at 37° C. in the dark for a further 30 minutes, then the Thermanox discs were imaged using a Zeiss Epifluorescence microscope. Live well spread cells were seen on the sample not exposed to chlorhexidine, while dead cells were observed on the surface cultured in the same plate as samples exposed to chlorhexidine.

For `[H]/N=C(\N/C(=N/[H])NCCCCCCNC(=N)NC(=N)Nc1ccc(Cl)cc1)Nc1ccc(Cl)cc1` [chlorhexidine], the “hTERT cells on Thermanox disc after exposure” value is given as “No cells were seen” (0.1% chlorhexidine in DMEM with 10% FCS) and “No cells were seen” (1% chlorhexidine in DMEM with 10% FCS).

Values taken from patent publication US20050220837A1, “Antimicrobial hyaluronic acid coatings for orthopedic implants” (priority 2003, published 2005).
